Source: patent US12398111B2, “Triazine compounds and pharmaceutical use thereof” (Japan Tobacco Inc., priority 2014, dated 2025)
pIC50: −log10 of the molar value.

These compounds were tested against T1, human mPGES-1 (Homo sapiens, UniProt O14684) (assay: Evaluation of human mPGES-1 enzyme inhibitory activity (PGE2 measured by HTRF, microsome fraction of CHO-S cells expressing human mPGES-1)). Settings: IC50 value; microsome fraction of CHO-S cells expressing human mPGES-1, PGE2 by HTRF.
T1 construct: made in house; host or cells: FreeStyle CHO-S cells (Chinese hamster ovary), transient transfection with pcDNA3.1(+)/human mPGES-1; microsome fraction used
T1 sequence (O14684 1-152): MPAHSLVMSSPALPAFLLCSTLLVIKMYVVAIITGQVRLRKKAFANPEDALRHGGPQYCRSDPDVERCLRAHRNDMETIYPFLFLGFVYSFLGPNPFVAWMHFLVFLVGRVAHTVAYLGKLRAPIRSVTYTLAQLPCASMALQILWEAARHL
Type: biochemical
Protocol: That is, the amount of PGE2 produced by human mPGES-1 in the presence of a test article was measured by the HTRF (homogeneous time resolved fluorescence) method, based on which the human mPGES-1 enzyme inhibitory activity of the test article was determined.
1) Preparation of Human mPGES-1 Expressing Cell Microsome Fraction
A DNA fragment containing human mPGES-1, which is added with a BamHI recognition cleavage sequence immediately before the translation initiation codon and an EcoRI recognition cleavage sequence immediately after the translation termination codon was amplified by the PCR (Polymerase Chain Reaction) method using a human mPGES-1 expression plasmid DNA (pME-18S/iPGES-1) prepared in-house as a template. The purified DNA fragment was digested with BamHI and EcoRI, and ligated to pcDNA3.1(+) (Invitrogen, model number V790-20), similarly digested with BamHI and EcoRI, by using a DNA Ligation kit ver.2.1 (Takara Bio, model number 6022). The human mPGES-1 expression plasmid DNA was isolated from Escherichia coli DH5a (TOYOBO, model number DNA-903) transformed with the obtained ligation product. The base sequence of human mPGES-1 cloned to a vector was determined by the Dye Terminator method by using BigDye Terminator v3.1 Cycle Sequencing Kit (Applied Biosystems, #4337455).
Human mPGES-1 expression plasmid DNA was transfected into Chinese hamster ovary-derived cells (FreeStyle CHO-S Cell, Invitrogen, #R800-07) by using a transgene reagent (FreeStyle MAX Reagent (Invitrogen, #16447-100)), and cultured with shaking (8% CO2, 37° C.) in a medium containing 8 mmol/L L-glutamine (GIBCO FreeStyle CHO Expression Medium, Invitrogen, #12651-022) for 48 hr.
The CHO-S cells were suspended in Homogenate Buffer (100 mmol/L potassium phosphate (pH 7.4), 250 mmol/L Sucrose, 100 mmol/L EDTA, complete EDTA free (Roche, #1873580)). Using an ultrasonic disruptor UD-201 (Tomy Seiko), the suspended cells were disrupted at output:3, duty cycle:50 for 30 seconds. The precipitate was removed by centrifugation (1,000×g, 5 min, 4° C.), is and the supernatant was centrifuged (5,000×g, 10 min, 4° C.). The supernatant was further centrifuged (105,000×g, 60 min, 4° C.). The obtained precipitate was suspended in Resuspension Buffer (100 mmol/L potassium phosphate (pH 7.4), 250 mmol/L sucrose, 100 mmol/L EDTA, 10% glycerol) to give a microsome fraction.
The protein concentration of the microsome fraction was measured by the Bradford method (Protein Assay Kit, Bio-Rad). The microsome fraction was rapidly frozen in liquid nitrogen and preserved at −80° C. Human mPGES-1 in the microsome fraction was detected by Western Blot using rabbit anti-mPGES-1 polyclonal antibody (ThermoFisher Scientific, #PA1-10264).
2) Evaluation of Human mPGES-1 Enzyme Inhibitory Activity
A test article solution diluted with 0.1 mol/L potassium phosphate, pH 7.4 (hereinafter to be referred to as KPB) or DMSO (Nacalai Tesque, #13407-45) was added at 5 μL/well to 96 well V-bottom plate (Corning, #3363). The final DMSO concentration during the reaction was set to 2% (v/v). Furthermore, a microsome fraction of CHO-S cells expressing human mPGES-1, which was diluted with reduced GSH (12.5 mmol/L KPB solution, SIGMA, #G6529-25G) such that the protein concentration was 5 μg/mL, was added at 20 μL/well. The amount of the microsome fraction used is the amount of microsome fraction within a range where the amount of PGE2 produced under the reaction conditions shown below and the amount of microsome fraction used show linearity. To the blank was added reduced GSH (12.5 mmol/L KPB solution) at 20 μL/well.

pIC50 | SMILES
8.92 | CCc1cccc(-c2nc(O)nc(-c3cc(CNC(=O)[C@@](C)(OC)C(F)(F)F)ccc3Cl)n2)c1 [Example 1-121]
8.64 | CO[C@](C)(C(=O)NCc1ccc(Cl)c(-c2nc(O)nc(-c3ccc(OCC(C)C)cc3)n2)c1)C(F)(F)F [Example 1-123]
9.05 | CCc1cc(-c2nc(O)nc(-c3cc(CNC(=O)C(C)(C)C(F)(F)F)ccc3Cl)n2)ccc1F [Example 1-124]
9.10 | Cc1cc(-c2nc(O)nc(-c3cc(CNC(=O)C4(C(F)(F)F)CCC4)ccc3Cl)n2)ccc1F [Example 1-125]
9.10 | CO[C@](C)(C(=O)NCc1ccc(Cl)c(-c2nc(O)nc(-c3ccc(C(F)(F)F)cc3)n2)c1)C(F)(F)F [Example 1-126]
9.10 | Cc1cc(-c2nc(O)nc(-c3cc(CNC(=O)C4(C(F)(F)F)CC4)ccc3Cl)n2)ccc1F [Example 1-127]
9.52 | CCOc1ccc(-c2nc(O)nc(-c3cc(CNC(=O)C(C)(C)C(F)(F)F)ccc3Cl)n2)cc1 [Example 1-132]
9.30 | CC(C)(C(=O)NCc1ccc(Cl)c(-c2nc(O)nc(-c3ccc(OCC4CC4)cc3)n2)c1)C(F)(F)F [Example 1-133]
8.40 | CC(C)(C(=O)NCc1ccc(Cl)c(-c2nc(O)nc(-c3ccc(O)cc3)n2)c1)C(F)(F)F [Example 1-134]
9.30 | CO[C@](C)(C(=O)NCc1ccc(Cl)c(-c2nc(O)nc(-c3ccc(C(C)(F)F)cc3)n2)c1)C(F)(F)F [Example 1-138]
9.22 | COc1ccc(-c2nc(O)nc(-c3cc(CNC(=O)C(C)(C)C(F)(F)F)ccc3Cl)n2)cc1 [Example 1-139]
9.30 | CC(C)Oc1ccc(-c2nc(O)nc(-c3cc(CNC(=O)C(C)(C)C(F)(F)F)ccc3Cl)n2)cc1 [Example 1-140]
8.96 | CC(C)(C(=O)NCc1ccc(Cl)c(-c2nc(O)nc(-c3ccc(OC4CCC4)cc3)n2)c1)C(F)(F)F [Example 1-141]
9.30 | CC(C)(C(=O)NCc1ccc(Cl)c(-c2nc(O)nc(-c3ccc(OCCC(F)(F)F)cc3)n2)c1)C(F)(F)F [Example 1-142]
9.00 | CC1(COc2ccc(-c3nc(O)nc(-c4cc(CNC(=O)C(C)(C)C(F)(F)F)ccc4Cl)n3)cc2)CCC1 [Example 1-143]
9.05 | COCCOc1ccc(-c2nc(O)nc(-c3cc(CNC(=O)C(C)(C)C(F)(F)F)ccc3Cl)n2)cc1 [Example 1-144]
9.30 | CCC1(COc2ccc(-c3nc(O)nc(-c4cc(CNC(=O)C(C)(C)C(F)(F)F)ccc4Cl)n3)cc2)COC1 [Example 1-145]
9.40 | CC#CCOc1ccc(-c2nc(O)nc(-c3cc(CNC(=O)C(C)(C)C(F)(F)F)ccc3Cl)n2)cc1 [Example 1-146]
9.10 | Cc1cc(-c2nc(O)nc(-c3cc(CNC(=O)C(C)(C)C(F)(F)F)ccc3Cl)n2)ccc1C(F)(F)F [Example 1-147]
8.77 | CO[C@](C)(C(=O)NCc1ccc(Cl)c(-c2nc(O)nc(-c3ccc(C(F)(F)F)c(C)c3)n2)c1)C(F)(F)F [Example 1-148]
9.10 | Cc1cc(-c2nc(O)nc(-c3cc(CNC(=O)C4(C(F)(F)F)CC4)ccc3Cl)n2)ccc1C(F)(F)F [Example 1-149]
9.40 | CCc1cc(-c2nc(O)nc(-c3cc(CNC(=O)[C@@](C)(OC)C(F)(F)F)ccc3Cl)n2)ccc1F [Example 1-151]
9.40 | CCc1cc(-c2nc(O)nc(-c3cc(CNC(=O)C4(C(F)(F)F)CC4)ccc3Cl)n2)ccc1F [Example 1-152]
9.30 | CC(C)(C(=O)NCc1ccc(Cl)c(-c2nc(O)nc(-c3ccc(F)c(Cl)c3)n2)c1)C(F)(F)F [Example 1-153]
9.30 | CCCOc1ccc(-c2nc(O)nc(-c3cc(CNC(=O)C4(C(F)(F)F)CC4)ccc3Cl)n2)cc1 [Example 1-154]
8.46 | CCC[C@H](C)Oc1ccc(-c2nc(O)nc(-c3cc(CNC(=O)C(C)(C)C(F)(F)F)ccc3Cl)n2)cc1 [Example 1-155]
8.39 | CCC[C@@H](C)Oc1ccc(-c2nc(O)nc(-c3cc(CNC(=O)C(C)(C)C(F)(F)F)ccc3Cl)n2)cc1 [Example 1-156]

Continued, compound first:

SMILES | pIC50
CCO[C@@](C)(C(=O)NCc1ccc(Cl)c(-c2nc(O)nc(-c3ccccc3)n2)c1)C(F)(F)F [Example 1-97] | 8.04
CC(C)(C(=O)NCc1ccc(Cl)c(-c2nc(O)nc(-c3cccc(OCC(F)(F)F)c3)n2)c1)C(F)(F)F [Example 1-99] | 9.15
CC(C)(C(=O)NCc1ccc(Cl)c(-c2nc(O)nc(-c3cccc(C4CCC4)c3)n2)c1)C(F)(F)F [Example 1-100] | 9.05
CC(C)Cc1ccc(-c2nc(O)nc(-c3cc(CC(=O)NC(C)(C)C)ccc3Cl)n2)cc1 [Example 1-101] | 8.24
CCCc1cccc(-c2nc(O)nc(-c3cc(CNC(=O)C(C)(C)C(F)(F)F)ccc3Cl)n2)c1 [Example 1-102] | 9.05
CO[C@](C)(C(=O)NCc1ccc(Cl)c(-c2nc(O)nc(-c3cccc(OC(F)(F)F)c3)n2)c1)C(F)(F)F [Example 1-103] | 8.89
CCCc1cccc(-c2nc(O)nc(-c3cc(CNC(=O)[C@@](C)(OC)C(F)(F)F)ccc3Cl)n2)c1 [Example 1-104] | 8.82
CO[C@](C)(C(=O)NCc1ccc(Cl)c(-c2nc(O)nc(-c3ccc(C)c(F)c3)n2)c1)C(F)(F)F [Example 1-105] | 9.15
CO[C@](C)(C(=O)NCc1ccc(Cl)c(-c2nc(O)nc(-c3ccc(F)c(C)c3)n2)c1)C(F)(F)F [Example 1-106] | 9.15
CC(C)c1cccc(-c2nc(O)nc(-c3cc(CNC(=O)C(C)(C)C(F)(F)F)ccc3Cl)n2)c1 [Example 1-107] | 8.92
CO[C@](C)(C(=O)NCc1ccc(Cl)c(-c2nc(O)nc(-c3cccc(C(C)C)c3)n2)c1)C(F)(F)F [Example 1-108] | 9.22
CCc1cccc(-c2nc(O)nc(-c3cc(CNC(=O)C(C)(C)C(F)(F)F)ccc3Cl)n2)c1 [Example 1-110] | 9.05
Cc1cccc(-c2nc(O)nc(-c3cc(CNC(=O)C(C)(C)C(F)(F)F)ccc3Cl)n2)c1 [Example 1-111] | 8.92
Cc1cc(-c2nc(O)nc(-c3cc(CNC(=O)C(C)(C)C(F)(F)F)ccc3Cl)n2)ccc1Cl [Example 1-112] | 9.05
CC(C)(C(=O)NCc1ccc(Cl)c(-c2nc(O)nc(-c3ccc(OCC(F)(F)F)cc3)n2)c1)C(F)(F)F [Example 1-113] | 9.05
CC(C)CCOc1ccc(-c2nc(O)nc(-c3cc(CNC(=O)C(C)(C)C(F)(F)F)ccc3Cl)n2)cc1 [Example 1-114] | 8.23
CSc1ccc(-c2nc(O)nc(-c3cc(CNC(=O)C(C)(C)C(F)(F)F)ccc3Cl)n2)cc1 [Example 1-115] | 9.22
CC(C)(C(=O)NCc1ccc(Cl)c(-c2nc(O)nc(-c3ccc(OCC4CCC4)cc3)n2)c1)C(F)(F)F [Example 1-116] | 8.70
CC(C)c1cc(-c2nc(O)nc(-c3cc(CNC(=O)C(C)(C)C(F)(F)F)ccc3Cl)n2)ccc1F [Example 1-117] | 8.80
CCCc1cc(-c2nc(O)nc(-c3cc(CNC(=O)C(C)(C)C(F)(F)F)ccc3Cl)n2)ccc1F [Example 1-118] | 8.72
CC(F)(F)c1ccc(-c2nc(O)nc(-c3cc(CNC(=O)C(C)(C)C(F)(F)F)ccc3Cl)n2)cc1 [Example 1-119] | 9.00
CC(C)COc1ccc(-c2nc(O)nc(-c3cc(CNC(=O)C(C)(C)C(F)(F)F)ccc3Cl)n2)cc1C(F)(F)F [Example 1-120] | 7.32
